Test results published in PubChem BioAssay AID248 (DTP/NCI, 2004).
Several values for one entry are separate records, joined by “and”; a condition that tells them apart may be missing. Equal entries are not always repeated. Inconclusive results and toxic doses are left out.

Test system: L1210 leukemia ip in BDF1 mice, survival T/C
Assay: NCI In Vivo Anticancer Drug Screen. Data for tumor model L1210 Leukemia (intraperitoneal) in B6D2F1 (BDF1) mice
Settings: endpoint: mean survival time, higher = longer survival
Procedure, shortened: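 Mice bearing the transplanted tumor received compound or vehicle. Survival of the treated group was divided by that of the vehicle-treated control group to give the ratio.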

[1] = dose: 100.0 mg/kg/injection, schedule: Q04DX003 (ip), vehicle: saline with Tween-80
[2] = dose: 200.0 mg/kg/injection, schedule: Q04DX003 (ip), vehicle: saline with Tween-80
[3] = dose: 400.0 mg/kg/injection, schedule: Q04DX003 (ip), vehicle: saline with Tween-80
[4] = dose: 200.0 mg/kg/injection, schedule: Q04DX002 (ip), vehicle: saline with Tween-80
[5] = dose: 100.0 mg/kg/injection, schedule: Q04DX002 (ip), vehicle: saline with Tween-80
[6] = dose: 400.0 mg/kg/injection, schedule: Q04DX002 (ip), vehicle: saline with Tween-80

NC(=O)CNC1=C(N2CC2)C(=O)C(NCC(N)=O)=C(N2CC2)C1=O
T/C (dose: 0.12 mg/kg/injection, schedule: Q04DX003 (ip), vehicle: saline): 106 % of control | T/C (dose: 0.25 mg/kg/injection, schedule: Q04DX003 (ip), vehicle: saline): 101 % of control | T/C (dose: 0.5 mg/kg/injection, schedule: Q04DX003 (ip), vehicle: saline): 116 % of control | T/C (dose: 1.0 mg/kg/injection, schedule: Q04DX003 (ip), vehicle: saline): 119 % of control | T/C (dose: 1.25 mg/kg/injection, schedule: Q01DX001 (ip), vehicle: saline): 102 % of control | T/C (dose: 1.25 mg/kg/injection, schedule: Q01DX009 (ip), vehicle: saline): 102 % of control | T/C (dose: 2.5 mg/kg/injection, schedule: Q01DX001 (ip), vehicle: saline): 100 % of control | T/C (dose: 2.5 mg/kg/injection, schedule: Q01DX009 (ip), vehicle: saline): 124 % of control | T/C (dose: 5.0 mg/kg/injection, schedule: Q01DX001 (ip), vehicle: saline): 108 % of control | T/C (dose: 5.0 mg/kg/injection, schedule: Q01DX009 (ip), vehicle: saline): 163 % of control | T/C (dose: 8.0 mg/kg/injection, schedule: Q04DX003 (ip), vehicle: saline): 193 % of control | T/C (dose: 10.0 mg/kg/injection, schedule: Q01DX001 (ip), vehicle: saline): 115 % of control | T/C (dose: 10.0 mg/kg/injection, schedule: Q01DX009 (ip), vehicle: saline): 158 % of control and 191 % of control | T/C (dose: 12.0 mg/kg/injection, schedule: Q04DX003 (ip), vehicle: saline): 122 % of control

COCC(C)C=O (configuration not stated)
T/C (dose: 50.0 mg/kg/injection, schedule: Q01DX009 (ip), vehicle: saline with Tween-80): 91 % of control | T/C (dose: 100.0 mg/kg/injection, schedule: Q01DX009 (ip), vehicle: saline with Tween-80): 91 % of control | T/C (dose: 200.0 mg/kg/injection, schedule: Q01DX009 (ip), vehicle: saline with Tween-80): 94 % of control

FC(F)(F)c1nn[nH]n1
T/C [1]: 101 % of control | T/C [2]: 108 % of control | T/C [3]: 103 % of control

CC(O)(c1ccccc1)c1ccccc1S(=O)(=O)Nc1ccccc1 (configuration not stated)
T/C (dose: 100.0 mg/kg/injection, schedule: Q01DX001 (ip), vehicle: carboxymethylcellulose (CMC)): 101 % of control | T/C (dose: 200.0 mg/kg/injection, schedule: Q01DX001 (ip), vehicle: carboxymethylcellulose (CMC)): 93 % of control | T/C (dose: 400.0 mg/kg/injection, schedule: Q01DX001 (ip), vehicle: carboxymethylcellulose (CMC)): 95 % of control

O=C(O)c1cccc2c1-c1ccccc1C(Br)C2Br (configuration not stated)
T/C [4]: 101 % of control

CC(C)C(CN)(CCN(C)C)c1cccc2ccccc12 (configuration not stated)
T/C [1]: 88 % of control

NC(=O)c1c(/N=C/c2ccccc2Cl)sc2c1CCCC2
T/C [5]: 91 % of control | T/C [4]: 87 % of control | T/C [6]: 91 % of control

O=C(CCl)Nc1cc(Cl)c(Cl)cc1Cl
T/C [1]: 97 % of control | T/C [2]: 97 % of control | T/C [3]: 106 % of control

CCOP(=O)(OCC)C1c2cc(Cl)ccc2-c2c(Cl)cc(Cl)cc21 (configuration not stated)
T/C (dose: 15.0 mg/kg/injection, schedule: Q01DX001 (ip), vehicle: saline): 103 % of control | T/C (dose: 30.0 mg/kg/injection, schedule: Q01DX001 (ip), vehicle: saline): 98 % of control | T/C (dose: 60.0 mg/kg/injection, schedule: Q01DX001 (ip), vehicle: saline): 103 % of control

COc1cc(C=Nc2ccc3c(c2)OCO3)ccc1OC(=O)c1ccccc1
T/C [5]: 96 % of control | T/C [4]: 100 % of control | T/C [6]: 93 % of control
